Assay results as given in ChEMBL document CHEMBL1201862, “PubChem BioAssay data set” (2004).
Active and inactive are the calls of the source.

What was measured:
[1] = target: T1, Low molecular weight phosphotyrosine protein phosphatase (Homo sapiens, UniProt P24666); type: functional; settings: read-out: IC50_Mean
T1 sequence (P24666 whole entry): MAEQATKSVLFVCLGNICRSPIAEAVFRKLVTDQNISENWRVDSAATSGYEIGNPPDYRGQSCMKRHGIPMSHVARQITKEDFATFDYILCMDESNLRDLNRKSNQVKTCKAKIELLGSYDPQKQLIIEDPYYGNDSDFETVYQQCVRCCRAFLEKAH

[2] = target: T1, Low molecular weight phosphotyrosine protein phosphatase; type: functional; settings: read-out: IC50_Mean; remark: listed apart in the source
[3] = activation of miR-122 Renilla sensor silencing – cell-based, Huh7 psiCHECK-miR122, Renilla luciferase, cherry-picked, dose response (AID 651956); type: functional;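 note: huh7 hepatoma cells stably carrying a psiCHECK-2 miR-122 sensor plasmid; renilla luciferase signal reporting endogenous miR-122 activity after 48 h compound exposure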
[4] = cytotoxicity toward MDA-MB-231 breast cancer cells – cell-based, CellTiter-Glo luminescence, cherry-pick, cytotoxicity control for RAD54 inhibitor project, dose response (AID 651692); type: functional
[5] = system: BJ; test: growth inhibition of engineered Ras-driven BJ cells – cell-based, alamar blue fluorescence, cherrypicked samples, dose response (AID 2631); type: functional; settings: Homo sapiens;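 note: confirmatory dose-response assay in RAS-dependent BJ fibroblasts engineered with TERT, LT and ST, with cytotoxicity read by fluorescence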
[6] = target: T2, DNA repair and recombination protein RAD54-like (Homo sapiens, UniProt Q92698); test: RAD54 Holliday junction migration blockers – biochemical, fluorescence, cherry-picked samples, dose series, confirmation (AID 651657); type: functional
T2 sequence (Q92698 whole entry): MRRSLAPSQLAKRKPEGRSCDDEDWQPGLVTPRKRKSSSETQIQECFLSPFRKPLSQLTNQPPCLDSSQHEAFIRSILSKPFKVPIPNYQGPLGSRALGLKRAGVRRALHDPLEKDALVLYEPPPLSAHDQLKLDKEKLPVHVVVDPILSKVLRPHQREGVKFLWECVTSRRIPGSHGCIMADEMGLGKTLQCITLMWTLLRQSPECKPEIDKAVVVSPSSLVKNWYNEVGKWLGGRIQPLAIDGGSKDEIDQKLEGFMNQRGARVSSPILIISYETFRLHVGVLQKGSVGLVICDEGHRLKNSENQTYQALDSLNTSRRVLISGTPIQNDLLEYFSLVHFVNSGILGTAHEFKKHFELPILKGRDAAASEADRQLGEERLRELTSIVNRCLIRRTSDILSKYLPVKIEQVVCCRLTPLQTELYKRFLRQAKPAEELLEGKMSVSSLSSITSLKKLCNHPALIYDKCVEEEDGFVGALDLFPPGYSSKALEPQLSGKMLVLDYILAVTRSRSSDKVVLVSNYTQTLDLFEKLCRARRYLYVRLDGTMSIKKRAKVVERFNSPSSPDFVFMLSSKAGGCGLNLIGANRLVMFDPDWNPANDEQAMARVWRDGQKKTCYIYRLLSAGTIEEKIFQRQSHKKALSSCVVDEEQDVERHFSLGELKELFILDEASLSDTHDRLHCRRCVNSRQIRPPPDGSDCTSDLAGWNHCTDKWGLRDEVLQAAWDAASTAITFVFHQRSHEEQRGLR

[7] = luciferase reporter signal suppression in cells – H4 neuroglioma cells, luminescence, dose response (AID 1990); type: functional, cell-based
[8] = DRD fibroblast viability loss – cell-based, non-viral oncogenic, luminescence, dose response (AID 1934); type: functional; settings: Homo sapiens
[9] = general cell-killing toxicity readout – plate reader, dry powder samples, cytotoxicity control for PAX8 inhibitor project, dose response (AID 743021); type: functional, cell-based
[10] = alpha-synuclein stem-loop luciferase translation blockers – H4 neuroglioma cells, luminescence, confirmation (AID 1988); type: functional, cell-based
[11] = target: G-protein coupled receptor 55 (Homo sapiens, UniProt Q9Y2T6); test: inhibition of LPI-stimulated GPR55 beta-arrestin translocation – imaging, U2OS, beta-arrestin-GFP, LPI agonist, primary screen (AID 2013); type: functional;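 note: antagonist potency measured as reduced agonist-driven arrestin aggregation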
Sequence of G-protein coupled receptor 55 (Q9Y2T6 whole entry): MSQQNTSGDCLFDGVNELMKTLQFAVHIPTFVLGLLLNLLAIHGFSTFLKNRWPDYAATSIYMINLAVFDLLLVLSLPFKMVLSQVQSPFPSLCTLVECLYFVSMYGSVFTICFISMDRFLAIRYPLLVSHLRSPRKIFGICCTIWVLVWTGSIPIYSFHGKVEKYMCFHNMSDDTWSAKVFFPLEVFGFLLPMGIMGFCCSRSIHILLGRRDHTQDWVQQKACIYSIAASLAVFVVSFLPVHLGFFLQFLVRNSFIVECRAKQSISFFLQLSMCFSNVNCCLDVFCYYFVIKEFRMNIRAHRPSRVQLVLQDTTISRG

[12] = target: DNA repair protein RAD52 homolog (Homo sapiens, UniProt P43351); type: functional, biochemical
Sequence of DNA repair protein RAD52 homolog (P43351 whole entry): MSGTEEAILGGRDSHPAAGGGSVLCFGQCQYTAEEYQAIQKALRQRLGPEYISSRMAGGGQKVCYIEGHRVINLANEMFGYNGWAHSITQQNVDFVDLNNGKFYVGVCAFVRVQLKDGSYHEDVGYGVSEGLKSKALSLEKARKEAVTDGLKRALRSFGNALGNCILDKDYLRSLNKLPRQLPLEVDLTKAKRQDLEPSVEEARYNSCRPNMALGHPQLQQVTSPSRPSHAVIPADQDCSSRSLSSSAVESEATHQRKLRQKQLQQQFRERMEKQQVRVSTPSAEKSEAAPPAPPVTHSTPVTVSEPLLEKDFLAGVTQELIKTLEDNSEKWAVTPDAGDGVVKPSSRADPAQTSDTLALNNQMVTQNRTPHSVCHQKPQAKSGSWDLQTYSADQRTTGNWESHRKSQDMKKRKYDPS

[13] = system: BJ; test: cells; type: functional, cell-based; settings: Homo sapiens
[14] = target: Paired box protein Pax-8 (Homo sapiens, UniProt Q06710); test: PAX8 transcriptional activity inhibition in RMG-I – RMG-I cells, luciferase, cherry-pick, dose response (AID 687027); type: functional, cell-based;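 note: luciferase reporter driven by Pax8 target thyroperoxidase promoter measured by SteadyGlo luminescence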
Sequence of Paired box protein Pax-8 (Q06710 whole entry): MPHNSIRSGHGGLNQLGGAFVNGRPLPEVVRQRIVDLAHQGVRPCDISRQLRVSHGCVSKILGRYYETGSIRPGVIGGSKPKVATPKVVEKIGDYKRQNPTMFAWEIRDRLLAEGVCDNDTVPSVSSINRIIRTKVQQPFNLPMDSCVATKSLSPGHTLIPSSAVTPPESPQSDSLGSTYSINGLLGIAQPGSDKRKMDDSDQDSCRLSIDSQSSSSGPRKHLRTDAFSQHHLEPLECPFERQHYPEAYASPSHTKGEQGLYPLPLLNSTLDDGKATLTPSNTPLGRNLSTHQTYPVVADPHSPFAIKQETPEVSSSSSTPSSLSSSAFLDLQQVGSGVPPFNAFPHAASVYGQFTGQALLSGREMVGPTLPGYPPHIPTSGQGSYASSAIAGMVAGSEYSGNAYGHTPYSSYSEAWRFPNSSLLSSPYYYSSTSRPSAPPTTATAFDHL

[15] = system: BJ; test: BJ-TERT-LT-ST fibroblast viability loss – cell-based, RAS-independent, luminescence, dose response (AID 1935); type: functional; settings: Homo sapiens;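 note: BJ fibroblasts immortalized with TERT plus LT and ST oncogenes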
[16] = target: T3, Heat shock factor protein 1 (Mus musculus, UniProt P38532); test: decrease of HSF1-responsive luciferase luminescence – cell-based, NIH3T3, dose retest, confirmation (AID 2382); type: functional;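 note: NIH3T3 fibroblasts with HSF1-driven luciferase reporter stressed by proteasome inhibitor MG132; luminescence from HSF1-driven luciferase expression after 8 hours of MG132 stress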
T3 sequence (P38532 whole entry): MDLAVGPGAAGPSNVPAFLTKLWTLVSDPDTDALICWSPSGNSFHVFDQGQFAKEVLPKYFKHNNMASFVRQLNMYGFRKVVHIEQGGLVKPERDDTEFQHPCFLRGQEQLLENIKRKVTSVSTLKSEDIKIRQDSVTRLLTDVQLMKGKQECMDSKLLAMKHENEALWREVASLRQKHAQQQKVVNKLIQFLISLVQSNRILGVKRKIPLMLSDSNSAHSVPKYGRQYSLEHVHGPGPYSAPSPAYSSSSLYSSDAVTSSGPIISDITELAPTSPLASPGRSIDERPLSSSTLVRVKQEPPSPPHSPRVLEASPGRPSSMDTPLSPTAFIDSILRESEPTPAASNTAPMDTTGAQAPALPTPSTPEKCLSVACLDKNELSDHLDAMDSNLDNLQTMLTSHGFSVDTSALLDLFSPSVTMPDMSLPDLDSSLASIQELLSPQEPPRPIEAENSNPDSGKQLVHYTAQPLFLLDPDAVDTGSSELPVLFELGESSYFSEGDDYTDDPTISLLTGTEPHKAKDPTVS

[17] = target: T4, Ubiquitin-conjugating enzyme E2 N (Homo sapiens, UniProt P61088); type: functional;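 note: Dose-response confirmation in a TR-FRET assay detecting UBC13-driven polyubiquitin chain formation, inhibition measured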
T4 sequence (P61088 whole entry): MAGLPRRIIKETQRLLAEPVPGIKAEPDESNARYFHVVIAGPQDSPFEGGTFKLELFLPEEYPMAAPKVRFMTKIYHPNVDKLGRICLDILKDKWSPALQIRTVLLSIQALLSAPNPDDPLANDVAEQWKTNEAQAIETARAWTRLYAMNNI

[18] = system: BJ; test: BJ-TERT fibroblast viability loss – cell-based, RAS-independent, luminescence, dose response (AID 1933); type: functional; settings: Homo sapiens
[19] = target: T5, Rac GTPase-activating protein 1 (Homo sapiens, UniProt Q9H0H5); test: blockers of MgcRacGAP-driven Rac1 GTP hydrolysis – biochemical, ADP Hunter fluorescence, primary and confirmatory, confirmation (AID 624330); type: functional
T5 sequence (Q9H0H5 whole entry): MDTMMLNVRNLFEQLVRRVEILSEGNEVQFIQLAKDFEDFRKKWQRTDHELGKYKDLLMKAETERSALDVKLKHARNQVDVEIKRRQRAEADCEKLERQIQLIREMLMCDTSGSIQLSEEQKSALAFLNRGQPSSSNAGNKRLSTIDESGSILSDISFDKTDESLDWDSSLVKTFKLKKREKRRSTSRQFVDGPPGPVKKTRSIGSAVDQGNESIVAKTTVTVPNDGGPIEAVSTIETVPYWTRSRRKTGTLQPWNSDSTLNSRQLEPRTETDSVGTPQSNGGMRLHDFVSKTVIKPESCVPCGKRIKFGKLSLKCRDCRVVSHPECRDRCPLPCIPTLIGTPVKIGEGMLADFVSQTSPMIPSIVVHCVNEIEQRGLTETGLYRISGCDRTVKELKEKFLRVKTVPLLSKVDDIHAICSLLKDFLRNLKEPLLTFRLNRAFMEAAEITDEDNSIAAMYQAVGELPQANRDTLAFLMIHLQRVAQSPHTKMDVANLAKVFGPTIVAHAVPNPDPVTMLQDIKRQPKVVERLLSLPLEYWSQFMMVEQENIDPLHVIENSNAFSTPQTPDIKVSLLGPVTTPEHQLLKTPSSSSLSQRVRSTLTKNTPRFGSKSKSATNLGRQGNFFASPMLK

[20] = target: Beta Lactamase (Pseudomonas aeruginosa, UniProt Q932Y6); test: BLA reporter interference, concentration series – BLA reporter cells, FRET fluorescence, artefact control for NOD2-RIPK2 interaction inhibitor project, dose response (AID 651552); type: functional, cell-based
Sequence of Beta Lactamase (Q932Y6 whole entry): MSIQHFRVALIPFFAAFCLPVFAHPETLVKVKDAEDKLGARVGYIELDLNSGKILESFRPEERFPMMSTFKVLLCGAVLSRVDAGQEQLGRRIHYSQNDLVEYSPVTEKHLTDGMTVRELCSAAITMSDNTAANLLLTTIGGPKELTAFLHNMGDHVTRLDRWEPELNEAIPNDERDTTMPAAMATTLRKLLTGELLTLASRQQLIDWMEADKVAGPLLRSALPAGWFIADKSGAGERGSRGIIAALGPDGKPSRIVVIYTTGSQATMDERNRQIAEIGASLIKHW

[21] = target: T6, Streptokinase A (Streptococcus pyogenes serotype M1, UniProt P10520); test: viability-normalized secreted streptokinase activity reduction – plasminogen activation absorbance, OD405, dose response (AID 1914); type: functional, Streptococcus pyogenes M1 GAS;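 note: secreted streptokinase activity via plasminogen activation per viability signal from cell pellet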
T6 sequence (P10520 whole entry): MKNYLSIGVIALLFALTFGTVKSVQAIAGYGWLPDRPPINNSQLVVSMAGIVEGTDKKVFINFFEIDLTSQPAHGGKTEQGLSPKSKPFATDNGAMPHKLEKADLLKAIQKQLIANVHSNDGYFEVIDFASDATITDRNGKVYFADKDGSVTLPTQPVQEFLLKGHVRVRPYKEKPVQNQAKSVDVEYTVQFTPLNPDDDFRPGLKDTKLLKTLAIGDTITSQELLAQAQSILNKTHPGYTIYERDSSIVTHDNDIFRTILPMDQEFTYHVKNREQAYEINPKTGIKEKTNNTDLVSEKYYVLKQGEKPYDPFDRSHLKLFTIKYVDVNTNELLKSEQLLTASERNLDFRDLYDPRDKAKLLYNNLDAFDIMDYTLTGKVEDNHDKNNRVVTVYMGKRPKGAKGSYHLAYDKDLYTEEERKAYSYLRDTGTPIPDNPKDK

[22] = target: T7, Heat shock protein HSP 90-alpha (Homo sapiens, UniProt P07900); test: Luminescence-based dose response biochemical high throughput screening assay for inhibitors of the Heat Shock Protein 90 (HSP90). [Related pubchem assays: 1831 (Summary AID.), 1846 (Confirmation screen.), 1789 (Primary screen.)]
[23] = system: INS1; test: INS-1E survival protection against cytokine death – cell-based, luminescence, retest, dose response (AID 449756); type: functional; settings: Rattus norvegicus;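 note: cell death triggered by IL-1 beta plus TNF-alpha plus IFN-gamma mixture; protective hits raise ATP signal compared with cytokine alone wells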
[24] = target: T7, Heat shock protein HSP 90-alpha; type: functional, organism-based
[25] = system: Streptococcus sp. 'group A'; test: Streptococcus pyogenes SK(-)GAS viability under kanamycin – luminescence, BacTiterGlo, confirmation, counter-screen for streptokinase expression inhibitor project, dose response (AID 1900); type: functional, organism-based
[26] = viability loss in HeLa cells – cytotoxicity control for MgcRacGAP inhibitor project, dose response (AID 624300); type: functional
[27] = system: Streptococcus; test: GAS UMAA2166 growth inhibition – luminescence, BacTiterGlo, counter-screen for streptokinase expression inhibitor project, dose response (AID 1915); type: functional, organism-based;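 note: potency for reduction of bacterial viability or growth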
[28] = Fluorescence-based cell-based high throughput dose response assay for inhibitors of the interaction of nucleotide-binding oligomerization domain containing 2 (NOD2) and the receptor-interacting serine-threonine kinase 2 (RIPK2).; type: functional; settings: Homo sapiens
[29] = target: T3, Heat shock factor protein 1; test: enhancement of HSF1-driven luciferase signal – cell-based, NIH3T3, luminescence, dose retest, confirmation (AID 435004); type: functional;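 note: stress induced by proteasome inhibitor MG132 added 30 min after compound; luciferase reporter driven by HSF1 response element in NIH3T3 cells; actives raise luminescence as potentiators of the MG132 stress response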

CC(=O)Nc1ccc(CNc2nc(NCC3CC3)nc3ccsc23)cc1
active: IC50 [1] 12.6 µM | IC50 [2] 17 µM

CN1C(=O)c2cc(NC(=O)c3cccc(C(F)(F)F)c3)ccc2OC[C@H]2O[C@H](CC(=O)NCCN3CCCC3)CC[C@H]21
active: AC50 [3] 38.9 µM

CN(C)CCNC(=O)c1cc2c(s1)-c1ccc(Cl)cc1SC2
inactive: IC50 [17] > 20 µM
active: AC50 [4] 11 µM | EC50 [5] 2.18 µM | AC50 [6] 60.8 µM | EC50 [8] 5.06 µM | AC50 [9] 29.3 µM | EC50 [10] 9.06 µM | IC50 [11] 6.25 µM | AC50 [12] 8.31 µM | AC50 [14] 9.29 µM | EC50 [16] 13.5 µM | EC50 [18] 4.54 µM
inconclusive: EC50 [13] 5.2 µM | EC50 [15] 5.57 µM
> 120 µM (not active): EC50 [7]

O=[N+]([O-])/C=C/c1ccc2c(ccn2Cc2ccccc2)c1
inactive: IC50 [20] 30 µM
active: IC50 [19] 23.3 µM | EC50 [21] 6.15 µM | IC50 [22] 2.98 µM | AC50 [23] 6.82 µM | AC50 [24] 3.42 µM | EC50 [25] 2.91 µM | CC50 [26] 42 µM | EC50 [27] 11.6 µM | IC50 [28] 1.74 µM | EC50 [29] 5.7 µM
